Values of other authors in patent US20170266090A1, “ANTIMICROBIAL COMPOSITIONS THAT ARE DERMATOLOGICALLY NON-DRYING” (Marvel Technologies USA, LLC, priority 2016, published 2017).

Conditions: background statement, no source given

**Q.** Which Drying time does the source give for CCO [Ethanol] here?
**A.** eight to thirteen
